Reference: patent publication US12559475B2, “Tetrazine compound capable of having rapid cycloaddition reaction with non-strained olefinic boronic acid and biomedical application thereof” (NANJING UNIVERSITY, priority 2024, dated 2026)

What was measured:
[1] = system: HepG2 cells; test: Toxicity (MTT cell survival) in HepG2 cells; type: cell-based; details: for IC50: Homo sapiens, HepG2, 48 h incubation, 1% FBS DMEM, MTT
Procedure: Toxicity of the tetrazine Tz-2, the doxorubicin prodrug DOX-VBA, the addition product, and the doxorubicin DOX were first tested.
HepG2 cells were plated in a 96-well plate and attached overnight; 1% FBS DMEM was used as a culture medium on the next day, different concentrations of Tz-2, DOX-VBA, product, and DOX were then added to the culture medium, and incubation was performed at 37° C. for 48 h; and 50 μL 1×MTT was added, the reaction continued for 4 h, DMSO was added to remove the culture medium, and cell survival rates at different concentrations were tested to calculate IC50 values (the cell survival rates were shown in FIG. 6).

[2] = Stability testing of tetrazine compounds in 10% FBS/DMEM (HPLC residual amount); type: physicochemical; details: 100 µM, 2.5% DMSO
Procedure: Specific implementation method: The tetrazine compounds were respectively dissolved in a 10% FBS/DMEM solution at a concentration of 100 µM (the solution contained 2.5% DMSO as a solubilizing agent), and residual amounts of tetrazine compounds were monitored via HPLC after 6 hours and 24 hours to analyze the stability of tetrazine compounds in a biological environment.

[3] = Reaction rate testing of tetrazine compounds and styryl boronic acid (HPLC); details: tetrazine 1 mM, styryl boronic acid 0.2 mM, methanol
Procedure: Specific implementation method: HPLC was used to test reaction rates by monitoring residual amounts of tetrazine compounds after different tetrazine compounds reacted with styryl boronic acid, where a molar concentration of the tetrazine compounds was 1 mM, and a molar concentration of styryl boronic acid was 0.2 mM, and a solvent was methanol solution.

[4] = Molecular release testing of tetrazine compound and styryl boronic acid derivative VBA-2 (NMR); details: Tz-2 + VBA-2, 0.02 M, deuterated DMSO:deuterated H2O=9:1, NMR
Procedure: Specific implementation method: the tetrazine compound Tz-2 and the styryl boronic acid derivative VBA-2 were dissolved in a deuterated solution (deuterated DMSO:deuterated H2O=9:1) at a molar concentration of 0.02 M. Reactions after 5 min, 12 h and 24 h were tested using a 500 MHz a nuclear magnetic resonance analyzer, and characteristic signal peaks of reactants and products on a hydrogen spectrum were tested to assess molecular release.

## COc1cccc2c1C(=O)c1c(O)c3c(c(O)c1C2=O)C[C@@](O)(C(=O)CO)C[C@@H]3O[C@H]1C[C@H](N)[C@H](O)[C@H](C)O1 [DOX, doxorubicin, reference compound]
[1]
  IC50: 500 nM

## COc1ccnc(-c2nnc(-c3ccccc3)nn2)c1C [Tz-1]
[2]; 6 h
  residual amount of tetrazine compound: 99%
[2]; 24 h
  residual amount of tetrazine compound: 85%
[3]
  k2: 56 M⁻¹ s⁻¹

## COc1ccnc(-c2nnc(-c3ccccn3)nn2)c1C [Tz-2]
[2]; 6 h
  residual amount of tetrazine compound: 55%
[2]; 24 h
  residual amount of tetrazine compound: 17%
[3]
  k2: 168 M⁻¹ s⁻¹
[4]
  time in which half of the benzylamine molecules were released: 12 h
[1]; HepG2 cells
  toxicity (in words): non-toxic
[1]
  IC50: > 100000 nM

## COc1ccnc(-c2nnc(-c3ccc(NC(=O)OC(C)(C)C)cc3)nn2)c1C [Tz-10]
[2]; 6 h
  residual amount of tetrazine compound: 99%
[2]; 24 h
  residual amount of tetrazine compound: 92%
[3]
  k2: 45 M⁻¹ s⁻¹

## COc1ccnc(-c2nnc(-c3ccc(CNC(=O)OC(C)(C)C)cc3)nn2)c1C [Tz-11]
[2]; 6 h
  residual amount of tetrazine compound: 99%
[2]; 24 h
  residual amount of tetrazine compound: 92%
[3]
  k2: 23 M⁻¹ s⁻¹

## COc1c(C)cnc(-c2nnc(-c3ccccc3)nn2)c1C [Tz-16]
[2]; 6 h
  residual amount of tetrazine compound: 99%
[2]; 24 h
  residual amount of tetrazine compound: 90%
[3]
  k2: 28 M⁻¹ s⁻¹

## c1ccc(-c2nnc(-c3ccccn3)nn2)nc1 [Tz-Py, reference compound]
[2]; 6 h
  residual amount of tetrazine compound: 35%
[2]; 24 h
  residual amount of tetrazine compound: 1%
[3]
  k2: 1.4 M⁻¹ s⁻¹
